Drawing on the OligoGym collection, this text covers target mRNA inhibition for 99 sequences.

“And” between values parts separate entries of the source, which are not always exact repeats. Equal values may be shown once. After the bases stand the sugars from the 5' end (letter, count) and the backbone: PS all phosphorothioate, else s phosphorothioate and o phosphodiester by linkage. Methylation of C is not given here. k = constrained ethyl (cEt); d = 2'-deoxy (DNA)

For the data set, the target named is MALAT1. The settings on record: ASO, A431, 0.005 µM.
GATGCTAGCTTGGCCA (sugars k3 d10 k3, PS): the target mRNA inhibition is -2%.

For the sequence GATGGACATTGCCTCT (sugars k3 d10 k3, PS), the target mRNA inhibition worked out at 37%.

In the case of GATTATCCTGATATTG (sugars k3 d10 k3, PS), the target mRNA inhibition is 4%.

As to GATTCACTGAATCCAC (sugars k3 d10 k3, PS), the target mRNA inhibition was found to be 8%.

As for GATTCCGTAACTTTAA (sugars k3 d10 k3, PS), the target mRNA inhibition was 69% and 90%.

For the sequence GATTCTAACAGCACAT (sugars k3 d10 k3, PS), the target mRNA inhibition is 31%.

For the sequence GCACAGCGGTACACTC (sugars k3 d10 k3, PS), the target mRNA inhibition came to 9%.

For the sequence GCAGATAATGTTCTCA (sugars k3 d10 k3, PS), the target mRNA inhibition is 73% and 95%.

Consider GCAGGCAAATTAATGG (sugars k3 d10 k3, PS), for which the target mRNA inhibition was 45%.

With GCAGGCTATTACCTGA (sugars k3 d10 k3, PS), the target mRNA inhibition turned out to be 19%.

Take GCATACCTTAACATCT (sugars k3 d10 k3, PS): the target mRNA inhibition is 54% and 44%.

As for GCATTACAGTTCTTGA (sugars k3 d10 k3, PS), the target mRNA inhibition is 72% and 75%.

For GCATTGCCCTTCTATT (sugars k3 d10 k3, PS), the target mRNA inhibition was 70% and 46%.

Regarding GCATTTCCCATAATTG (sugars k3 d10 k3, PS), the target mRNA inhibition stood at 46%.

GCCAACACAGTTTGCT (sugars k3 d10 k3, PS): the target mRNA inhibition was found to be 30%.

Turning to GCCAAGCACTCATATG (sugars k3 d10 k3, PS), the target mRNA inhibition turned out to be 24%.

With GCCATGGAAAGCGAGT (sugars k3 d10 k3, PS), the target mRNA inhibition is 9%.

Take GCCCACAGGAACAAGT (sugars k3 d10 k3, PS): the target mRNA inhibition came to 25%.

Turning to GCCCCAACACTGAACT (sugars k3 d10 k3, PS), the target mRNA inhibition is 11%.

As to GCCCCCCACGGCCCGC (sugars k3 d10 k3, PS), the target mRNA inhibition came to 10%.

For GCCCTTCTATTGGTAT (sugars k3 d10 k3, PS), the target mRNA inhibition was -3%.

In the case of GCCGACCTCACGGATT (sugars k3 d10 k3, PS), the target mRNA inhibition was 45%.

Turning to GCCGCCTGCTACCTTC (sugars k3 d10 k3, PS), the target mRNA inhibition is 12%.

With GCCGCCTTTGTGAGGG (sugars k3 d10 k3, PS), the target mRNA inhibition stood at 25%.

On to GCCTATAAGGACAGCT (sugars k3 d10 k3, PS), for which the target mRNA inhibition was 11%.

Take GCCTCCTCAATCCACT (sugars k3 d10 k3, PS): the target mRNA inhibition came to 16%.

On to GCCTCTATTGCCATGT (sugars k3 d10 k3, PS), for which the target mRNA inhibition amounted to 30%.

With GCCTCTTCATTGTATT (sugars k3 d10 k3, PS), the target mRNA inhibition was 10%.

As for GCCTGCTCGCCTCCTC (sugars k3 d10 k3, PS), the target mRNA inhibition was determined as 41%.

On to GCCTTAAAGTTACATT (sugars k3 d10 k3, PS), for which the target mRNA inhibition was determined as 10%.

Consider GCCTTCCCGTACTTCT (sugars k3 d10 k3, PS), for which the target mRNA inhibition is 60% and 53%.

With GCCTTCGGTGCCTTTA (sugars k3 d10 k3, PS), the target mRNA inhibition is -2%.

Turning to GCGAATGGCTTTGTCT (sugars k3 d10 k3, PS), the target mRNA inhibition worked out at 7%.

As to GCGGACTTTCTCCCCC (sugars k3 d10 k3, PS), the target mRNA inhibition is -24%.

As for GCGGCCCCCCAGTTGC (sugars k3 d10 k3, PS), the target mRNA inhibition was -16%.

Turning to GCGGTACACTCCTTCT (sugars k3 d10 k3, PS), the target mRNA inhibition was determined as 28%.

Regarding GCTAAGATAGCAGCAC (sugars k3 d10 k3, PS), the target mRNA inhibition came to 29%.

Turning to GCTACCATCAGAAGAA (sugars k3 d10 k3, PS), the target mRNA inhibition came out at 22%.

For the sequence GCTACTATATTTAAGG (sugars k3 d10 k3, PS), the target mRNA inhibition stood at 29%.

On to GCTAGCTTGGCCAAGT (sugars k3 d10 k3, PS), for which the target mRNA inhibition worked out at 2%.

GCTCACATGCCAGTTA (sugars k3 d10 k3, PS): the target mRNA inhibition stood at 32%.

With GCTCATCACTTTATGA (sugars k3 d10 k3, PS), the target mRNA inhibition is 10%.

Regarding GCTCCCCGCCTGAGCC (sugars k3 d10 k3, PS), the target mRNA inhibition was 8%.

Regarding GCTCGATGGAAAAATT (sugars k3 d10 k3, PS), the target mRNA inhibition came out at 10%.

Regarding GCTCTAGTTTCTATAA (sugars k3 d10 k3, PS), the target mRNA inhibition is 27%.

With GCTGTGGTTTTAATAC (sugars k3 d10 k3, PS), the target mRNA inhibition is 49% and 57%.

Regarding GCTTACACACAACTGA (sugars k3 d10 k3, PS), the target mRNA inhibition amounted to 50%.

Regarding GCTTATTCCCCAATGG (sugars k3 d10 k3, PS), the target mRNA inhibition was 73% and 48% and 50%.

With GCTTCCTACTTTTCAG (sugars k3 d10 k3, PS), the target mRNA inhibition stood at 44%.

With GCTTGACAAGCAATTA (sugars k3 d10 k3, PS), the target mRNA inhibition was found to be 35%.

On to GGAAAAGTGGTTGCCC (sugars k3 d10 k3, PS), for which the target mRNA inhibition was found to be 24%.

With GGAAATTTTTCTACCG (sugars k3 d10 k3, PS), the target mRNA inhibition was 8%.

As to GGAACAAGTCCTACAA (sugars k3 d10 k3, PS), the target mRNA inhibition came to 23%.

As for GGAATTATTATATGCT (sugars k3 d10 k3, PS), the target mRNA inhibition worked out at 54%.

In the case of GGACAGTAGGTATAGT (sugars k3 d10 k3, PS), the target mRNA inhibition was 11%.

Consider GGACTCTTTTCCTATC (sugars k3 d10 k3, PS), for which the target mRNA inhibition was -4%.

Take GGACTTGGCAGTCTGC (sugars k3 d10 k3, PS): the target mRNA inhibition is 27%.

For GGAGAACAACTCGCAT (sugars k3 d10 k3, PS), the target mRNA inhibition turned out to be 17%.

With GGAGGTATGACATATA (sugars k3 d10 k3, PS), the target mRNA inhibition is 68% and 84%.

On to GGATAAAAGCAGCTCC (sugars k3 d10 k3, PS), for which the target mRNA inhibition was 32%.

Regarding GGATGAAATGCCTCTG (sugars k3 d10 k3, PS), the target mRNA inhibition is 24%.

As for GGATGTATATAGTTCA (sugars k3 d10 k3, PS), the target mRNA inhibition was 30%.

Regarding GGCCAGACCAACCCCC (sugars k3 d10 k3, PS), the target mRNA inhibition came to 3%.

Take GGCCATCATACTGCCA (sugars k3 d10 k3, PS): the target mRNA inhibition was -19%.

On to GGCTCGATGGAAAAAT (sugars k3 d10 k3, PS), for which the target mRNA inhibition amounted to 33%.

Take GGGAACACAACTTTTA (sugars k3 d10 k3, PS): the target mRNA inhibition turned out to be 33%.

Take GGGCTTTACTTTCCAT (sugars k3 d10 k3, PS): the target mRNA inhibition came out at 16%.

GGGTTAAGCACTTTTA (sugars k3 d10 k3, PS): the target mRNA inhibition was determined as 57%.

Take GGTACTTCAAGCATTC (sugars k3 d10 k3, PS): the target mRNA inhibition was found to be 44%.

Turning to GGTCAATAGTGTAAAA (sugars k3 d10 k3, PS), the target mRNA inhibition was 43%.

As for GGTCATCTATTCACAA (sugars k3 d10 k3, PS), the target mRNA inhibition was determined as 29%.

For the sequence GGTGAGGCTGACACTT (sugars k3 d10 k3, PS), the target mRNA inhibition was determined as 27%.

Regarding GGTTACCATAAGTAAG (sugars k3 d10 k3, PS), the target mRNA inhibition came out at 37%.

With GGTTATGCTTATTCCC (sugars k3 d10 k3, PS), the target mRNA inhibition stood at 37%.

As for GTAAAACATTGCCTAC (sugars k3 d10 k3, PS), the target mRNA inhibition came out at 24%.

As for GTAACTACCAGCCATT (sugars k3 d10 k3, PS), the target mRNA inhibition was found to be 45%.

On to GTAACTTTAAATTGGT (sugars k3 d10 k3, PS), for which the target mRNA inhibition was 55% and 63%.

Consider GTACACTCCTTCTCTA (sugars k3 d10 k3, PS), for which the target mRNA inhibition was 17%.

On to GTACCTGAAAAATCTT (sugars k3 d10 k3, PS), for which the target mRNA inhibition was 3%.

On to GTATAGTTTACCACCT (sugars k3 d10 k3, PS), for which the target mRNA inhibition was 9%.

Take GTATGCTGATAAACTC (sugars k3 d10 k3, PS): the target mRNA inhibition was found to be 52%.

For the sequence GTATTTATAGACGGAG (sugars k3 d10 k3, PS), the target mRNA inhibition was determined as 0%.

With GTCCAATGCAAAAACA (sugars k3 d10 k3, PS), the target mRNA inhibition is -5%.

GTCCTAGCTTCATCAA (sugars k3 d10 k3, PS): the target mRNA inhibition was determined as 18%.

As for GTCCTTTACAGAAGTC (sugars k3 d10 k3, PS), the target mRNA inhibition was found to be 35%.

On to GTCTCGGGCTGCAGGC (sugars k3 d10 k3, PS), for which the target mRNA inhibition is -6%.

Regarding GTGAAAACCCACTCTT (sugars k3 d10 k3, PS), the target mRNA inhibition was determined as 10%.

Turning to GTGGCCTTGGCACACT (sugars k3 d10 k3, PS), the target mRNA inhibition is -10%.

In the case of GTTAAACTTATCTGTT (sugars k3 d10 k3, PS), the target mRNA inhibition worked out at 41%.

With GTTAACAGCTGCCTGC (sugars k3 d10 k3, PS), the target mRNA inhibition was 7%.

With GTTAACATGCAAACTT (sugars k3 d10 k3, PS), the target mRNA inhibition was found to be 13%.

For GTTACCTTGAAACCGA (sugars k3 d10 k3, PS), the target mRNA inhibition was 47%.

Regarding GTTACGAAAGTCCTTC (sugars k3 d10 k3, PS), the target mRNA inhibition came out at 45%.

Take GTTATATTAGGTTCTC (sugars k3 d10 k3, PS): the target mRNA inhibition amounted to 7%.

Take GTTCAAAGATATTGTG (sugars k3 d10 k3, PS): the target mRNA inhibition is 0%.

Consider GTTTAAGTCACCTTCA (sugars k3 d10 k3, PS), for which the target mRNA inhibition is 63% and 38%.

TAAATACCACCACCTG (sugars k3 d10 k3, PS): the target mRNA inhibition is 2%.

Take TAAATCATTGGGAGTT (sugars k3 d10 k3, PS): the target mRNA inhibition turned out to be 38%.

As for TAAATCCCTTTACACC (sugars k3 d10 k3, PS), the target mRNA inhibition amounted to 12%.
